Values after ≈ are worked out from the molar mass of the structure shown.
What was measured:
[1] = Solubility of finafloxacin HCl in Tris, phosphate and pH-adjusted WfI (Example 1); assay type: physicochemical
Experimental: The solubility of finafloxacin, in form of its mono-hydrochloride salt, was tested at pH values between 7.3 and 9.0, using the following solutions: 0.01 M Tris: Water for injection 800 ml, Tris 1.21 g, sodium chloride 7.5 g, water for injection ad 1000 ml; pH was adjusted with HCl/NaOH. 0.025 M Phosphate: Water for injection 800 ml, sodium dihydrogen phosphate 1.950 g, disodium hydrogen phosphate 2.225 g, sodium chloride 7.5 g, water for injection ad 1000 ml; pH was adjusted with HCl/NaOH. WfI: Water for injection 900 ml, sodium chloride 7.5 g, water for injection ad 1000 ml; pH was adjusted with HCl/NaOH.

[2] = Stability of finafloxacin composition comprising Tris (Example 3); assay type: physicochemical; details: solution of 3.20 g/l finafloxacin, 7.80 g/l NaCl, 1.21 g/l Tris, pH 8.25, water for injection
Excerpt: The following composition was used to test the stability: [table]

E. coli 25922 = test: In vitro susceptibility test (MIC), finafloxacin composition with Tris; assay type: cell-based; details: Escherichia coli, composition at pH 8.0 containing 0.05 M Tris, read-out: minimal inhibitory concentration (MIC)
Experimental: (§1) The efficacy of finafloxacin compositions including Tris between pH 8.0-8.5 was examined and determined as follows:
(§2) 4.1 Bacteria were incubated in a finafloxacin composition at pH 8.0 containing 0.05 M Tris and the minimal inhibitory concentration (MIC) of finafloxacin, defined as the minimal finafloxacin concentration that inhibited the growth of the bacterium, was determined using a standard in vitro susceptibility test.

S. aureus 29213 = test: as above; assay type: cell-based; details: Staphylococcus aureus, composition at pH 8.0 containing 0.05 M Tris, read-out: minimal inhibitory concentration (MIC)
Experimental: as §1, §2

E. coli ATCC 25922 = test: Mouse intraperitoneal infection model, bacterial burden; assay type: in vivo; details: mice, composition with 0.01 M Tris, doses 4 and 12 hours post infection, burden 24 hours post infection
Experimental: 4.2 Mice were infected with 3.9×10^5 E. coli ATCC 25922 suspended in 1% porcine mucin administered by a 0.5 ml intraperitoneal injection. Antibacterial treatment with a finafloxacin composition comprising 0.01 M Tris was initiated 4 hours post infection with a second dose 12 hours post infection. The bacterial burden in the peritoneal fluid and blood culture was determined 24 hours post infection. Finafloxacin was effective at all doses with 1 mg/kg causing a reduction in burden of 3.1 log 10 cfu/g, finafloxacin administered at 3, 10 and 30 mg/kg were increasingly effective causing reductions of 4.4, 5.0 and 6.5 log 10 cfu/g, respectively.

pathogen in the urine = test: Microbiological cure in patients with complicated urinary tract infections and pyelonephritis; assay type: in vivo, human; details: intravenous 800 mg once daily, composition with 0.01 M Tris, 17 days after start of treatment, cure = pathogen in urine ≤10^3 cfu/ml
Experimental: 4.3 Patients with complicated urinary tract infections and pyelonephritis were treated with an intravenous dose of 800 mg Finafloxacin once daily. 17 days after the start of the treatment the microbiological cure results were determined. Microbiological cure is defined as the reduction of the concentration of the pathogen in the urine to a titer of ≤10^3 cfu/ml. The finafloxacin composition comprising 0.01 M Tris caused an efficient eradication of the pathogens. The microbiological cure rate was 83%.

[3] = 2-week intravenous toxicological appraisal in rats; assay type: in vivo; details: 2 weeks, 60, 120 and 200 mg/kg/day, in 0.01 M Tris, 0.75% (w/v) sodium chloride, pH 8.5
Excerpt: The test article was formulated in 0.01 M Tris containing sodium chloride to 0.75% (w/v), adjusted in water for injection to pH 8.5.

[4] = Solubility of finafloxacin HCl in different concentrations of Tris solutions (Example 2); assay type: physicochemical
Experimental: 0.25 M Tris: Water for injection 800 ml, Tris 30.3 g, sodium chloride 7.5 g, water for injection ad 1000 ml; pH was adjusted with HCl/NaOH. 0.17 M Tris: Water for injection 800 ml, Tris 20.0 g, sodium chloride 7.5 g, water for injection ad 1000 ml; pH was adjusted with HCl/NaOH. 0.08 M Tris: Water for injection 800 ml, Tris 10.0 g, sodium chloride 7.5 g, water for injection ad 1000 ml; pH was adjusted with HCl/NaOH. […] In contrast to example 1 the pH was not re-adjusted after the stepwise addition of finafloxacin.

Compound: N#Cc1c(N2C[C@@H]3NCCO[C@H]3C2)c(F)cc2c(=O)c(C(=O)O)cn(C3CC3)c12 [Finafloxacin, (−)-8-cyano-1-cyclopropyl-6-fluoro-7-[(4aS,7aS)-hexahydropyrrolo[3,4-b]-1,4-oxazin-6(2H)-yl]-4-oxo-1,4-dihydroquinoline-3-carboxylic acid]
- increase in solubility ([1]; 0.01 M Tris versus WfI and phosphate buffer): 3-4 fold
- long term stability [2]: at least 24 months
- MIC (E. coli 25922): 0.25 µg/mL (≈ 0.628 µM)
- MIC (S. aureus 29213): 0.5 µg/mL (≈ 1.26 µM)
- reduction in burden (E. coli ATCC 25922; 1 mg/kg): 3.1 log 10 cfu/g
- reduction in burden (E. coli ATCC 25922; 3 mg/kg): 4.4 log 10 cfu/g
- reduction in burden (E. coli ATCC 25922; 10 mg/kg): 5.0 log 10 cfu/g
- reduction in burden (E. coli ATCC 25922; 30 mg/kg): 6.5 log 10 cfu/g
- microbiological cure rate (pathogen in the urine): 83%
- tolerability [3]: generally well tolerated

Compound: Cl.N#Cc1c(N2C[C@@H]3NCCO[C@H]3C2)c(F)cc2c(=O)c(C(=O)O)cn(C3CC3)c12 [Finafloxacin HCl]
- solubility ([1]; 0.01 M Tris, pH 7.5, pH re-adjusted): 6000 µg/mL
- solubility ([1]; 0.01 M Tris, pH 8.0, pH re-adjusted): 15000 µg/mL
- solubility ([1]; 0.01 M Tris, pH 8.5, pH re-adjusted): >28000 µg/mL
- solubility ([1]; 0.01 M Tris, pH 9.0, pH re-adjusted): >28000 µg/mL
- solubility ([1]; 0.025 M Phosphate, pH 7.5, pH re-adjusted): 2000 µg/mL
- solubility ([1]; 0.025 M Phosphate, pH 8.0, pH re-adjusted): 4000 µg/mL
- solubility ([1]; 0.025 M Phosphate, pH 8.5, pH re-adjusted): 6000 µg/mL
- solubility ([1]; 0.025 M Phosphate, pH 9.0, pH re-adjusted): 8000 µg/mL
- solubility ([1]; pH-adjusted WfI, pH 7.5): 2000 µg/mL
- solubility ([1]; pH-adjusted WfI, pH 8.0): 4000 µg/mL
- solubility ([1]; pH-adjusted WfI, pH 8.5): 6000 µg/mL
- solubility ([1]; pH-adjusted WfI, pH 9.0): 6000 µg/mL
- solubility ([4]; 0.08 M Tris, pH 7.8, pH not re-adjusted): 4000 µg/mL
- solubility ([4]; 0.08 M Tris, pH 8.2, pH not re-adjusted): 6000 µg/mL
- solubility ([4]; 0.08 M Tris, pH 8.6, pH not re-adjusted): 9000 µg/mL
- solubility ([4]; 0.08 M Tris, pH 9.0, pH not re-adjusted): 10000 µg/mL
- solubility ([4]; 0.17 M Tris, pH 7.4, pH not re-adjusted): 2000 µg/mL
- solubility ([4]; 0.17 M Tris, pH 7.8, pH not re-adjusted): 6000 µg/mL
- solubility ([4]; 0.17 M Tris, pH 8.2, pH not re-adjusted): 10000 µg/mL
- solubility ([4]; 0.17 M Tris, pH 8.6, pH not re-adjusted): 19000 µg/mL
- solubility ([4]; 0.17 M Tris, pH 9.0, pH not re-adjusted): 23000 µg/mL
- solubility ([4]; 0.25 M Tris, pH 7.4, pH not re-adjusted): 2000 µg/mL
- solubility ([4]; 0.25 M Tris, pH 7.8, pH not re-adjusted): 8000 µg/mL
- solubility ([4]; 0.25 M Tris, pH 8.2, pH not re-adjusted): 15000 µg/mL
- solubility ([4]; 0.25 M Tris, pH 8.6, pH not re-adjusted): 24000 µg/mL
- solubility ([4]; 0.25 M Tris, pH 9.0, pH not re-adjusted): 28000 µg/mL
